Measurements taken from patent publication US12258377B2 (Scancell Limited, priority 2012, dated 2025).
Ends that are not written are not given here.

Tests used:
splenocytes [1] = test: Ex vivo elispot assay on splenocytes of immunised HLA-DR4 transgenic mice; type: in vivo; conditions: 25 μg peptide with CpG and MPLA day 0, peptide 5 μM
Experimental: (§1) C57BL/6 mice (Charles River, UK), HLA-DR4 mice (Taconic, USA), HHDII mice (Pasteur institute, France) and HHDII/DRI mice (Pasteur institute, France) were used, aged between 8 and 12 weeks, and cared for by the staff at Nottingham Trent University. All work was carried out under a Home Office project license. Peptides were dissolved in 10% Dimethylformamide to 1 mg/ml and then emulsified (a series of dilutions) with different adjuvants: CpG and MPLA 6 μg/mouse of each (Invivogen, UK), Incomplete Freund's […] (Sigma, UK), and GMCSF 10 μg/mouse (Peprotech, UK). Peptides (25 μg/mouse) were injected subcutaneously at the base of the tail. DNA (1 μg/mouse) was coated onto 1.0 μm gold particles (BioRad, Hemel Hempstead, UK) using the manufacturer's instructions and administered intradermally by genegun (BioRad). Homspera (10 nM/mouse) (PeptideSynthetics, UK) was injected intradermally with genegun immunisation. Mice were immunized at either day 0 for peptide immunisation or days, 0, 7, and 14 for peptide and genegun immunisation. Spleens were removed for analysis at day 14 for peptide and day 20 for peptide or genegun immunisation unless stated otherwise. 400 μg Anti-CD25 antibody (PC61) was administered i.p. in saline 3 days prior to the immunisation. 200 μg Anti-CTLA-4 antibody (UC 10-4F, 10-11) was administered i.p. in saline at day 7 and 14 with either genegun or peptide immunisation.
(§2) Elispot assays were performed using murine IFNγ, IL-17 and IL-10 capture and detection reagents according to the manufacturer's instructions (Mabtech, Sweden). In brief, anti-IFNγ, IL-17 and IL-10 antibodies were coated onto wells of 96-well Immobilin-P plate. Synthetic peptides (at a variety of concentrations) and 5×10^5 per well splenocytes were added to the wells of the plate in triplicate. Tumour target cells were added where relevant at 5×10^4/well in triplicate and plates incubated for 40 hrs at 37° C. After incubation, captured IFNγ, […], IL-17 and IL-10 were detected by biotinylated anti-IFNγ, IL-17 and IL-10 antibodies and developed with a strepatavidin alkaline phosphatase and chromogenic substrate. Spots were analysed and counted using an automated plate reader (Cellular Technologies Ltd). Functional avidity was calculated as the concentration mediating 50% maximal effector function using a graph of effector function versus peptide concentration.

splenocytes [2] = test: Ex vivo elispot assay on splenocytes of immunised HLA-DR1 / HLA-A2/DR1 (HHDII/DR1) transgenic mice; type: in vivo; conditions: HLA-A2/DR1 mice
Experimental: as §1, §2

PBMC = test: Proliferation assay of PBMC from cancer patients; type: cell-based, human; conditions: PBMC stimulated with 10 μg/ml peptide for 4, 7 and 11 days, 3H-thymidine
Experimental: PBMC were isolated from freshly drawn heparinised blood by Ficol-Hypaque (Sigma) gradient centrifugation. PBMC (1.5×10^6 cells/well) were stimulated with single peptides (final concentration 10 μg/ml) in RPMI containing 5% pooled autologous human serum, 2 mM glutamine, 20 mM HEPES and Penicillin-streptomycin (1%) in a final volume of 2 ml. Stimulation with purified protein derivative, PPD (final concentration 10 μg/ml) served as a positive control for the proliferative capacity of PBMC. As a negative control PBMC were incubated with medium alone. The PBMC were cultured at 37° C. in an atmosphere of 5% CO2 for 4, 7 and 11 days. To assess proliferation at these times points 100 μl in triplicate from each culture was aliquoted into a round bottom well of a 96 well plate and ^3H-thymidine added (0.0185 MBq/well) and incubated at 37° C. for a further 8 hours. The cultures were harvested onto unifilter plates and incorporation of ^3H-thymidine was determined by β-scintillation counting. The results were assessed by calculating the stimulation index (SI) as the ratio of the mean of counts per minute (cpm) of epitope-stimulated to the mean of unstimulated cultures. The proliferative assay was considered positive when SI >2.5.

[3] = tested on: T2 or B16HHD tumour cells; test: 51Cr-release assay, vim 65 cit CTL lines against HLA-A2 positive target cells; type: cell-based; conditions: peptide pulsed HLA-A2 positive target cells
Experimental: Target cells were labelled for 1 hr with 1.85 MBq sodium (^51Cr) chromate (Amersham, Essex, UK) with or without 10 μg/ml peptide. Post incubation they were washed 3 times in RPMI. Targets 5×10^3/well of a 96-well V-bottomed plates were set up and co incubated with different densities of effector cells in a final volume of 200 μl of RPMI, 10% FCS (Sigma), 20 mM HEPES buffer, 2 mM L-glutamine, 100 units/ml penicillin and 100 μg/ml streptomycin. After 20 hrs at 37° C., 50 μl of supernatants were removed from each well and transferred to a Lumaplate (Packard, Rigaweg, the Netherlands). Plates were read on a Topcount Microplate Scintillation Counter (Packard). Percentage specific lysis was calculated using the following formula: specific lysis=100×[(experimental release−spontaneous release)/(maximum release−spontaneous release)].

EL4 HHD cells = test: IFNg elispot of splenocytes against EL4 HHD tumour target cells; type: cell-based, HLA-A2/DR1 transgenic mice; conditions: EL4 HHD over HLA mismatched B16 cells
Experimental: as §2

splenocytes [4] = test: Ex vivo elispot assay on splenocytes of immunised HLA-DR1 / HLA-A2/DR1 (HHDII/DR1) transgenic mice; type: in vivo; conditions: stimulation with citrullinated peptide; HLA-A2/DR1 mice
[5] = 25 μg citrullinated peptide day 0, day 14

Sequence: SAVRLRSSVPGVR [citrullinated vim 65 peptide] (not fully specified; also: citrullinated, positions not given here)
- IL-17 elispot response to citrullinated peptide, mean (splenocytes [1]; day 14): 550 /million splenocytes
- IL-17 elispot response to wild type peptide, mean (splenocytes [1]; day 14): no responses
- IFNγ elispot response to citrullinated peptide, mean (splenocytes [1]; day 14 splenocytes): 550 /million splenocytes
- IFNγ elispot response to wild type peptide, mean (splenocytes [1]; day 14 splenocytes): no responses
- IFNγ elispot response to citrullinated peptide (splenocytes [2]; [5]): high frequency IFNγ responses
- IFNγ elispot response to wild type peptide (splenocytes [2]; [5]): some cross reactivity to the wild type peptide
- IL-10 elispot response to citrullinated peptide (splenocytes [2]; [5]): Low frequency IL-10 responses
- IFNγ response with blockade of MHC class II (splenocytes [2]; L243 HLA-DR blocking antibody): does not eliminate the citrullinated peptide specific response
- patients showing a proliferative response (SI >2.5) (PBMC; listed as citrullinated vim 65-77): 4/9
- patients showing a proliferative response (SI >2.5) (PBMC; listed as vim 65 cit): three of eight
- cytotoxicity (chromium release) [3]: cytotoxicity of peptide pulsed HLA-A2 positive target cells
- recognition of tumour target cells ex vivo (EL4 HHD cells): good recognition of transgenic HLA-A2 engineered EL4 cell line (EL4 HHD)
- phenotype of cells producing IFNγ and TNFa (intracellular cytokine staining) (splenocytes [4]): CD8 positive
